Results reported in PMC4751974, “Deriving Heterospecific Self-Assembling Protein–Protein Interactions Using a Computational Interactome Screen” (Journal of Molecular Biology, 2016).

Test system: coiled-coil pairs within the eight-peptide interactome
Test: Thermal denaturation followed by CD at 222 nm (Tm of coiled-coil pairs)
Format: binding
Settings: Table 1 and text, CD 222 nm, 150 μM total peptide (75 μM per peptide for heterodimers), 10 mM potassium phosphate, 100 mM potassium fluoride, pH 7, -8 to 95 °C in 1 °C steps, two-state fit
Description: CD was carried out using an Applied Photophysics Chirascan CD apparatus (Leatherhead, UK) using a 200-μl sample in a CD cell with a 1-mm path length. Samples contained 150 μM total peptide (Pt) concentration at equimolar concentration for heterodimeric solutions (i.e., 75 μM per peptide) and suspended in 10 mM potassium phosphate and 100 mM potassium fluoride at pH 7 1 h prior to analysis. The CD spectra of samples were scanned between 300 nm and 190 nm in 1-nm steps, averaging 0.5 s at each wavelength. Three scans at 20 °C were averaged to assess helical levels and coiled-coil structure.
Thermal denaturations were performed at 150 μM Pt in 10 mM potassium phosphate and 100 mM potassium fluoride, pH 7, using an Applied Photophysics Chirascan CD instrument (Leatherhead, UK). The temperature ramp was set to stepping mode using 1 °C increments and paused for 30 s at each temperature before measuring ellipticity at 222 nm. For all temperature denaturation experiments, data collection was started at − 8 °C, and at this temperature, the peptide solutions remained aqueous. Data collection continued to 95 °C. Data points for thermal denaturation profiles represent the averaged signal after 4 s of data collection. Melting profiles (see Fig. 3a) were ≥ 95% reversible with equilibrium denaturation curves fitted to a two-state model, derived via modification of the Gibbs–Helmholtz equation [6], [45], [46], to yield the melting temperature (Tm). […] Tm values were determined by least-squares fitting of the denaturation assuming a two-state folding model that is widely used for coiled coils and provided an excellent fit to our data.

Sequence	Tm	other results
ASENAALEAKIAALKYEIAALEAKNAALKGAP [Peptide 6, N- and C-capped coiled-coil peptide; 6-6 is the homomeric sample]	53 °C	–
ASKNAALKAEIAALEYKIAALKAENAALEGAP [Peptide 5, N- and C-capped coiled-coil peptide; 5-5 is the homomeric sample]	53 °C	–
ASKIAALKAKNAALKYENAALEAEIAALEGAP [Peptide 7, N- and C-capped coiled-coil peptide; 7-7 is the homomeric sample]	–	Tm (listed as 7-7): 11 °C
ASKNAALKAENAALEYEIAALEAKIAALKGAP [Peptide 2, N- and C-capped coiled-coil peptide; 2-2 is the homomeric sample]	20 °C	–
ASEIAALEAENAALEYKNAALKAKIAALKGAP [Peptide 8, N- and C-capped coiled-coil peptide; 8-8 is the homomeric sample]	–	Tm (listed as 8-8): 27 °C
ASENAALEAKNAALKYKIAALKAEIAALEGAP [Peptide 1, N- and C-capped coiled-coil peptide; 1-1 is the homomeric sample]	32 °C	–
